Experimental data reported in patent US10570122B2, “Compounds with anti-tumoral activity” (AB Science, priority 2015, dated 2020).
“Also recorded” adds a separate entry of the source.

How the values were obtained:
[1] = test system: PANC1; assay: CellTiter-Blue cell-based survival/proliferation assay, PANC1; details: Homo sapiens, PANC-1; PANC_1 pancreas tumor cell line, 48 h
How it was run: (§1)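 Tenfold compound dilutions (0–10 μM) were added to 1·10^4 cells/well. Plates incubated 48 h at 37 °C. CellTiter-Blue reduction (4 h, 37 °C) was read as fluorescence at 590 nm, background-corrected with a cell-free blank.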

[2] = test system: HEPG2; assay: CellTiter-Blue cell-based survival/proliferation assay, HEPG2; details: Homo sapiens; HEPG2 liver tumor cell line, 48 h
How it was run: as §1

[3] = test system: DLD1; assay: CellTiter-Blue cell-based survival/proliferation assay, DLD1; details: Homo sapiens, DLD-1; DLD_1 colorectal tumor cell line, 48 h
How it was run: as §1

[4] = test system: H1299; assay: CellTiter-Blue cell-based survival/proliferation assay, H1299; details: Homo sapiens, NCI-H1299; H1299 lung tumor cell line, 48 h
How it was run: as §1

[5] = test system: OPM2; assay: CellTiter-Blue cell-based survival/proliferation assay, OPM2; details: Homo sapiens, OPM-2, Myeloma cell line OPM2, 48 h, read-out: Anti-tumoral activity (measured IC50) OPM2
How it was run: as §1

[6] = test system: BXPC3; assay: CellTiter-Blue cell-based survival/proliferation assay, BXPC3; details: Homo sapiens, BXPC-3; BXPC3 pancreas tumor cell line, 48 h
How it was run: as §1

[7] = test system: HGC27; assay: CellTiter-Blue cell-based survival/proliferation assay, HGC27; details: Homo sapiens, HGC-27; HGC27 stomach tumor cell line, 48 h
How it was run: as §1

[8] = test system: MESSA; assay: CellTiter-Blue cell-based survival/proliferation assay, MESSA; details: Homo sapiens, MES-SA; MESSA ovary tumor cell line, 48 h
How it was run: as §1

[9] = test system: HUT78; assay: CellTiter-Blue cell-based survival/proliferation assay, HUT78; details: Homo sapiens, Lymphoma cell line HUT78, 48 h, read-out: Anti-tumoral activity (measured IC50) HUT78
How it was run: as §1

[10] = test system: KARPAS299; assay: CellTiter-Blue cell-based survival/proliferation assay, KARPAS299; details: Homo sapiens, KARPAS-299, Lymphoma cell line KARPAS299, 48 h, read-out: Anti-tumoral activity (measured IC50) KARPAS299
How it was run: as §1

[11] = test system: RL; assay: CellTiter-Blue cell-based survival/proliferation assay, RL; details: Homo sapiens, Lymphoma cell line RL, 48 h, read-out: Anti-tumoral activity (measured IC50) RL
Protocol: Cell-Based Proliferation Screening of Compounds
CellTiter-Blue cell-based survival/proliferation assay (Promega G8080) was performed on tumor cell lines. A total of 1·10^4 cells/well/50 μl were seeded in a 96-wells plate. Treatment was initiated by addition of a 2× drug solution of 1/10 serial dilutions ranging from 0 to 10 μM. Cells were grown for 48 h at 37° C. and then incubated with 10 μl/well of Promega CellTiter-Bleue reagent for 4 h at 37° C. The amount of resorufin dye formed was quantified by its fluorescence emission at 590 nm using a scanning multiwell spectrophotometer (OPTIMA, BMG labtech, France). A blank well without cells was used as a background control for the spectrophotometer.

[12] = test system: PC3; assay: CellTiter-Blue cell-based survival/proliferation assay, PC3; details: Homo sapiens, PC-3; PC3 prostate tumor cell line, 48 h
How it was run: as §1

[13] = test system: HL60; assay: CellTiter-Blue cell-based survival/proliferation assay, HL60; details: Homo sapiens, HL-60, Leukemia cell line HL60, 48 h, read-out: Anti-tumoral activity (measured IC50) HL60
How it was run: as §1

[14] = test system: panel of about 34 human tumor cell lines; assay: Cell-based proliferation screening on panel of tumor cell lines; details: solid tumor cell line, cell line unknown, 48 h, read-out: IC50, solid tumor cell line of column 6 (last section of Table 3)
How it was run: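 CellTiter-Blue survival assay with 1·10^4 cells/well, each line treated 48 h at 37° C with 1/10 serial dilutions from 0 to 10 μM. Resorufin formed during a 4 h reagent incubation is read by fluorescence at 590 nm. A cell-free blank serves as background.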

[15] = test system: ACHN; assay: CellTiter-Blue cell-based survival/proliferation assay, ACHN; details: Homo sapiens; ACHN kidney tumor cell line, 48 h
How it was run: as §1

[16] = test system: AGS; assay: CellTiter-Blue cell-based survival/proliferation assay, AGS; details: Homo sapiens; AGS stomach tumor cell line, 48 h
How it was run: as §1

[17] = test system: HEP2; assay: CellTiter-Blue cell-based survival/proliferation assay, HEP2; details: Homo sapiens, HEp-2; HEP2 head & neck tumor cell line, 48 h
How it was run: as §1

[18] = test system: SW579; assay: CellTiter-Blue cell-based survival/proliferation assay, SW579; details: Homo sapiens; SW579 head & neck tumor cell line, 48 h
How it was run: as §1

[19] = test system: TOV112D; assay: CellTiter-Blue cell-based survival/proliferation assay, TOV112D; details: Homo sapiens; TOV112D ovary tumor cell line, 48 h
How it was run: as §1

[20] = test system: A498; assay: CellTiter-Blue cell-based survival/proliferation assay, A498; details: Homo sapiens; A498 kidney tumor cell line, 48 h
How it was run: as §1

[21] = test system: CLS354; assay: CellTiter-Blue cell-based survival/proliferation assay, CLS354; details: Homo sapiens, CLS-354; CLS354_4 head & neck tumor cell line, 48 h
How it was run: as §1

[22] = test system: BT20; assay: CellTiter-Blue cell-based survival/proliferation assay, BT20; details: Homo sapiens, BT-20; BT20 breast tumor cell line, 48 h
How it was run: as §1

[23] = test system: DU145; assay: CellTiter-Blue cell-based survival/proliferation assay, DU145; details: Homo sapiens, DU-145; DU145 prostate tumor cell line, 48 h
How it was run: as §1

[24] = test system: PLCPRF5; assay: CellTiter-Blue cell-based survival/proliferation assay, PLCPRF5; details: Homo sapiens, PLC-PRF-5; PLC_PRF5 liver tumor cell line, 48 h
How it was run: as §1

[25] = test system: HCT116; assay: CellTiter-Blue cell-based survival/proliferation assay, HCT116; details: Homo sapiens, HCT-116; HCT116 colorectal tumor cell line, 48 h
How it was run: as §1

[26] = test system: CALU6; assay: CellTiter-Blue cell-based survival/proliferation assay, CALU6; details: Homo sapiens, Calu-6; CALU6 lung tumor cell line, 48 h
How it was run: as §1

[27] = test system: A549; assay: CellTiter-Blue cell-based survival/proliferation assay, A549; details: Homo sapiens; A549 lung tumor cell line, 48 h
How it was run: as §1

[28] = test system: MDAMB231; assay: CellTiter-Blue cell-based survival/proliferation assay, MDAMB231; details: Homo sapiens, MDA-MB-231; MDAMB231 breast tumor cell line, 48 h
How it was run: as §1

[29] = test system: A4513; assay: CellTiter-Blue cell-based survival/proliferation assay, A4513; details: Homo sapiens; A4513 Ewing cell line, 48 h
How it was run: as §1

[30] = test system: MELWO; assay: CellTiter-Blue cell-based survival/proliferation assay, MELWO; details: Homo sapiens; MEL_WO melanoma cell line, 48 h
How it was run: as §1

[31] = test system: A375; assay: CellTiter-Blue cell-based survival/proliferation assay, A375; details: Homo sapiens, A-375; A375 melanoma cell line, 48 h
How it was run: as §1

[32] = test system: U118; assay: CellTiter-Blue cell-based survival/proliferation assay, U118; details: Homo sapiens; U118 glioblastoma cell line, 48 h
How it was run: as §1

[33] = test system: U87MG; assay: CellTiter-Blue cell-based survival/proliferation assay, U87MG; details: Homo sapiens, U-87 MG; U87_MG glioblastoma cell line, 48 h
How it was run: as §1

[34] = test system: U2OS; assay: CellTiter-Blue cell-based survival/proliferation assay, U2OS; details: Homo sapiens; U2OS osteosarcoma cell line, 48 h
How it was run: as §1

[35] = test system: human kinases (456 kinases); assay: KINOMEscan in vitro kinase profiling; assay type: binding
Protocol: An in vitro kinase profiling was conducted in order to evidence the absence of protein kinase inhibition by the compounds of the invention.
DiscoveRx (Ambit Biosciences) has developed a high-throughput system (KINOMEscan™) for screening of compounds against large numbers of human kinases (456 kinases).
The compounds of the invention were screened at the concentration of 1 μM, and results for primary screen binding interactions were reported as percent control (% Ctrl), where lower numbers indicate stronger hits. DMSO is used as a negative control (100% Ctrl) while a high affinity compound is used as a positive control (0% Ctrl). % Ctrl is calculated as follow:
[formula] Selectivity Score or S-score is a quantitative measure of compound selectivity. It is calculated by dividing the number of kinases that compounds bind to by the total number of distinct kinases tested, excluding mutant variants. S(10)=(number of kinases with % Ctrl<10)/(number of kinases tested), S(1)=(number of kinases with % Ctrl<1)/(number of kinases tested).

[36] = test system: REC1; assay: CellTiter-Blue cell-based survival/proliferation assay, REC1; details: Homo sapiens, Lymphoma cell line REC1, 48 h, read-out: Anti-tumoral activity (measured IC50) REC1
How it was run: as §1

| Structure (SMILES) | IC50 [1] | IC50 [2] | IC50 [3] | IC50 [4] | IC50 [5] | IC50 [6] | IC50 [7] | IC50 [8] | IC50 [9] | IC50 [10] | IC50 [12] | IC50 [13] | IC50 [15] | IC50 [16] | IC50 [17] | IC50 [18] | IC50 [19] | IC50 [20] | IC50 [21] | IC50 [22] | also measured |
| --- | --- | --- | --- | --- | --- | --- | --- | --- | --- | --- | --- | --- | --- | --- | --- | --- | --- | --- | --- | --- | --- |
| CCOCc1ccc(C)c(Nc2ncc(-c3ccc(-n4ccnc4)cc3)o2)c1 [Example 037, (5-Ethoxymethyl-2-methyl-phenyl)-[5-(4-imidazol-1-yl-phenyl)-oxazol-2-yl]-amine] | > 1000 nM | > 1000 nM | > 1000 nM | > 1000 nM | > 1000 nM | > 1000 nM | > 1000 nM | > 1000 nM | > 1000 nM | > 1000 nM | > 1000 nM | > 1000 nM | > 1000 nM | > 1000 nM | > 1000 nM | > 1000 nM | > 1000 nM | > 1000 nM | > 1000 nM | > 1000 nM | IC50 [11]: > 1000 nM; IC50 [14]: > 1000 nM; IC50 [23]: > 1000 nM; IC50 [24]: > 1000 nM; IC50 [25]: > 1000 nM; IC50 [26]: > 1000 nM; IC50 [27]: > 1000 nM; IC50 [28]: > 1000 nM |
| CCOCc1ccc(C)c(Nc2nc(-c3ccc(N4CCNC4=O)cc3)cs2)c1 [Example 003, 1-{4-[2-(5-Ethoxymethyl-(2-methyl-phenylamino))-thiazol-4-yl]-phenyl}-imidazolidin-2-one] | > 1000 nM | > 1000 nM | ≤ 100 nM | > 1000 nM | ≤ 100 nM | ≤ 100 nM | > 1000 nM | 100 to 500 nM | ≤ 100 nM | ≤ 100 nM | ≤ 100 nM | ≤ 100 nM | ≤ 100 nM | > 1000 nM | > 1000 nM | > 1000 nM | ≤ 100 nM | ≤ 100 nM | ≤ 100 nM | > 1000 nM | IC50 [29]: ≤ 100 nM; IC50 [30]: ≤ 100 nM; IC50 [31]: ≤ 100 nM; IC50 [32]: > 1000 nM; IC50 [33]: > 1000 nM; IC50 [34]: > 1000 nM; IC50 [23]: > 1000 nM; Interaction with the 456 kinases tested ([35]; screened at 1 μM): do not efficiently interact; Number of hits/number of kinases, S1 ([35]; tested at 1 μM, S(1): kinases with % Ctrl<1): 1/456; S-score, S1 ([35]; tested at 1 μM, S(1)=(number of kinases with % Ctrl<1)/(number of kinases tested)): 0.002; Number of hits/number of kinases, S10 ([35]; tested at 1 μM, S(10): kinases with % Ctrl<10): 4/456; S-score, S10 ([35]; tested at 1 μM, S(10)=(number of kinases with % Ctrl<10)/(number of kinases tested)): 0.009; Kinase targets, S1 ([35]; tested at 1 μM, kinases with % Ctrl<1): PDGFRB; Kinase targets, S10 ([35]; tested at 1 μM, kinases with % Ctrl<10): KIT, KIT V559D,; also recorded: KIT L576P; IC50 [24]: > 1000 nM; IC50 [25]: 500 to 1000 nM; IC50 [26]: > 1000 nM; IC50 [27]: > 1000 nM; IC50 [28]: ≤ 100 nM; IC50 [36]: ≤ 100 nM |
